Results on two molecules are retold here after US20150141367A1, “MODULATION OF GROWTH OF BIFIDOBACTERIA USING A COMBINATION OF OLIGOSACCHARIDES FOUND IN HUMAN MILK” (NESTEC S.A., priority 2011, published 2015).

In test [1] the test system is Bifidobacterium Infantis ATCC 15697. Description: Growth of bifidobacteria in RCM without glucose, optical density at 595 nm over 30 hours. In kind it is cell-based. The conditions noted are these: for growth in wells containing the test ingredient vs control medium: abs 595 nm; for effect on the growth of Bifidobacterium infantis (summary statement): summary in description. Here is the method: (§1) Reinforced Clostridia Medium (RCM) was used for cultivating the bifidobacteria. RCM without glucose was used as a control medium. RCM is a well-known medium for cultivating and enumerating anaerobes, which was first formulated by Hirsch and Grinstead, J. Dairy Res., 21:101 (1954). The test ingredients were 2′-fucosyllactose, 6′-sialyllactose and 3′-sialyllactose dissolved in the control medium at the following concentrations: 1 mg/ml 2′-fucosyllactose; 1 mg/ml 6′-sialyllactose; and, 2 mg/ml 3′-sialyllactose. The bifidobacteria were separately grown overnight anaerobically in RCM, and were then measured and diluted to an optical density of 0.1 as measured by absorbance spectroscopy at 595 nm, and were then further diluted ten-fold to make a working stock. For each test, 50 μl of working stock was added to each well of a 96 well plate containing either 200 μl of control medium (48 wells) or 200 μl test ingredient solution (48 wells). The plate was grown anaerobically for 30 hours and optical density was read at abs 595 nm every 15 minutes. The values for like wells were averaged and plotted over time (FIGS. 1, 3, and 5-7), and the area under the curve (AUC) was calculated over the 30-hour period (FIGS. 2 and 4).

Test [2] deals with Bifidobacterium Breve ATCC 15700. The test is described as above. The format is cell-based. The procedure: as §1

With `CC(=O)N[C@H]1[C@H]([C@H](O)[C@H](O)CO)O[C@@](O[C@H]2[C@@H](O)[C@@H](CO)O[C@@H](O[C@H]3[C@H](O)[C@@H](O)C(O)O[C@@H]3CO)[C@@H]2O)(C(=O)O)C[C@@H]1O` (stereo partly drawn) [3′-sialyllactose], the “growth in wells containing the test ingredient vs control medium” value in test [1] (2 mg/ml 3′-sialyllactose, after grown for 8 hours, FIG. 7) is given as “significantly greater”; in test [2] (2 mg/ml 3′-sialyllactose, after grown for 6 hours, abs 595 nm, FIG. 6), “significantly greater”. The “effect on the growth of Bifidobacterium infantis (summary statement)” value in test [1] is “stimulates the growth”. The “effect on the growth of Bifidobacterium breve (summary statement)” value in test [2] (summary in description) is reported as “stimulates the growth”.

Regarding `CC(=O)N[C@H]1[C@H]([C@H](O)[C@H](O)CO)O[C@@](OC[C@H]2O[C@@H](O[C@H]3[C@H](O)[C@@H](O)[C@H](O)O[C@@H]3CO)[C@H](O)[C@@H](O)[C@H]2O)(C(=O)O)C[C@@H]1O` [6′-sialyllactose], the “growth in wells containing the test ingredient vs control medium” value in test [1] (1 mg/ml 6′-sialyllactose, after grown for 12 hours, FIG. 5) was “significantly greater”. In test [1], the “effect on the growth of Bifidobacterium infantis (summary statement)” value is recorded as “stimulates the growth”.
